According to US12138256B2, “Treatment of cardiopulmonary disorders” (Bayer Aktiengesellschaft, priority 2021, dated 2024):
Where “and” joins values, the source holds several entries; their conditions need not be identical. Identical values can stand only once. Like-named read-outs stand apart in the source and are kept apart here.

Legend:
[1] = test system: anesthetized PAH minipigs; test: PAH minipig model: intratracheal application of dry powder formulations and different hydrates (PennCentury insufflator); assay type: in vivo, Göttingen minipig; settings: for BP (mean) / PAP(mean) / BP % changes vs. prevalues / PAP % changes vs. prevalues: 375 μg/kg i.t.; for BP (mean) / PAP(mean): absolute values; for BP % changes vs. prevalues / PAP % changes vs. prevalues: each animal
Text: After characterization of the effects of comparative example 11 after nebulization of compound solutions, in a further step the effects of crystalline forms of comparative example 11, e.g. sesquihydrate, e.g. example 6e on PAP and BP after inhaled application of different dry powder lactose formulations (table C2.1.8) were studied in anesthetized PAH minipigs.
As reference pure Lactose vehicle was applied in the beginning of each experiment.

[2] = test system: thromboxane analog U46619 induced PAH in minipigs; test: PAH minipig model: comparison with and on top of standard of care (bosentan, sildenafil, riociguat); assay type: in vivo, Göttingen minipig; settings: for BP decrease % / PAP decrease %: % change per animal
Text: Efficacy of inhaled comparative example 11 was compared with systemically applied bosentan, sildenafil and riociguat (see FIG. 53a) in the PAH minipig model. […] Therefore inhaled application of comparative example 11 offers clear benefits as systemic effects are avoided, compared to standard of care.

[3] = Stability of the crystalline form during micronization (spiral jet mill, XRPD); assay type: physicochemical
Text: Generally no amorphization even partial nor form conversion should happen during the necessary micronization step.
The corresponding batches (examples 8a-8d) were micronized using a 50 mm spiral jet mill and pressurized nitrogen with the following parameters (see table 16b).
The corresponding batches were micronized using a 100 mm spiral jet mill and pressurized nitrogen with the following parameters (see table 16c).

[4] = Phase I, healthy male subjects, 7 days inhalation: plasma concentrations over time (C-4.1); assay type: in vivo, human; settings: all doses administered
Description: Healthy White male subjects, aged 18 to 45 years and with a body mass index (BMI) above/equal 18.5 and below/equal 29.9 kg/m2 were treated in a clinical pharmacological phase I study on seven days with inhaled once daily doses of 480 μg or 1000 μg or 2000 μg (2 capsules of 1000 μg) (nominal dose) of dry powder formulations of example 2 or Placebo. The subjects inhaled the drug powder from capsules (see under D-1, e.g. tables 22 and 23) inserted into a handheld inhalation device by one deep inhalative breath. The dry powder formulation of the drug is dispersed into the airstream and fine particles are transported into the deep parts of the lung where it is intended to cause a vasodilation of the blood vessels in PH patients for a substantial reduction of increased blood pressure in the central pulmonary blood vessels in PAH patients or other subtypes of PH. This effect cannot be shown in subjects with healthy lungs. In addition inhaled drug causes a dilation of the bronchial airways and thus also improves disease states of lung diseases in PH patients with pathological bronchoconstriction. This effect was measured via bodyplethysmography as reduction of Specific Airway Resistance in healthy subjects. […]

[5] = 30 μg/kg inhaled on top of Bosentan 1 mg/kg
[6] = 30 μg/kg inhaled on top of Riociguat 3 μg/kg/h
[7] = 30 μg/kg inhaled on top of Sildenafil 300 μg/kg/h
[8] = 30 μg/kg nominal dose inhaled, alone

O=C(O)c1ccc(CCN(CCc2ccccc2OCc2ccc(-c3ccc(C(F)(F)F)cc3)cc2Cl)[C@H]2CCCc3nc(C(=O)O)ccc32)cc1 [comparative example 11, (5S)-5-{[2-(4-carboxyphenyl)ethyl][2-(2-{[3-chloro-4′-(trifluoromethyl)[biphenyl]-4-yl]methoxy}phenyl)ethyl]amino}-5,6,7,8-tetrahydroquinoline-2-carboxylic acid]
MED (dry powder) ([1]; intratracheal lactose formulation, lower doses not applicable): < 7.5 µg/kg | BP decrease % [2, 5]: −12.8% and 3.6% | PAP decrease % [2, 5]: −29.7% and −27.1% | BP decrease % [2, 6]: 3.1% and −1.1% and 11.5% | PAP decrease % [2, 6]: −29.7% and −24.2% and −26.3% | BP decrease % [2, 7]: −6.9% and −6.4% and 1.2% | PAP decrease % [2, 7]: −33.6% and −36.9% and −42.8% | BP decrease % [2, 8]: −6.8% and 1.6% and 3.5% | PAP decrease % [2, 8]: −19.9% and −22.8% and −21.7% | BP decrease % ([2]; 100 μg/kg nominal dose inhaled): −4.5% and −9.9% and −3.1% | PAP decrease % ([2]; 100 μg/kg nominal dose inhaled): −33.1% and −45.1% and −38.2% | efficacy regarding PAP on top of bosentan, sildenafil or riociguat ([2]; comparative example 11 30 μg/kg inhaled): maintained its efficacy regarding PAP

O=C(O)c1ccc(CCN(CCc2ccccc2OCc2ccc(-c3ccc(C(F)(F)F)cc3)cc2Cl)[C@H]2CCCc3nc(C(=O)O)ccc32)cc1 [example 2, (5S)-{[2-(4-Carboxyphenyl)ethyl][2-(2-{[3-chloro-4′-(trifluoromethyl)biphenyl-4-yl]methoxy}phenyl)-ethyl]amino}-5,6,7,8-tetrahydroquinoline-2-carboxylic acid]
stability of the form under micronization [3]: monohydrate II with partial amorphization | stability of the form under micronization ([3]; listed as monohydrate II): partial amorphization occurred under several conditions | efficacy with regard to PAP reduction as well as systemic BP reduction ([1]; 1.5 mg/4 kg (=375 μg/kg) intratracheally, micronized): comparable efficacy | BP (mean) ([1]; time 0): 109 mmHg and 127 mmHg and 136 mmHg | PAP(mean) ([1]; time 0): 35.8 mmHg and 38.7 mmHg and 39.7 mmHg | BP (mean) ([1]; time 10): 110 mmHg and 126 mmHg and 135 mmHg | PAP(mean) ([1]; time 10): 35.8 mmHg and 38.7 mmHg and 37.1 mmHg | BP (mean) ([1]; time 20): 117 mmHg and 128 mmHg and 139 mmHg | PAP(mean) ([1]; time 20): 38.9 mmHg and 38.2 mmHg and 40.2 mmHg | BP (mean) ([1]; time 30): 121 mmHg and 128 mmHg and 139 mmHg | PAP(mean) ([1]; time 30): 39.8 mmHg and 38.6 mmHg and 40.0 mmHg | BP (mean) ([1]; time 40): 123 mmHg and 127 mmHg and 137 mmHg | PAP(mean) ([1]; time 40): 40.4 mmHg and 39.0 mmHg and 40.7 mmHg | BP (mean) ([1]; time 50): 120 mmHg and 127 mmHg and 135 mmHg | PAP(mean) ([1]; time 50): 39.7 mmHg and 39.2 mmHg and 40.2 mmHg | BP % changes vs. prevalues ([1]; time 50): 99.1% and 100.1% and 100.0% | PAP % changes vs. prevalues ([1]; time 50): 99.1% and 99.2% and 98.5% | BP (mean) ([1]; time 60): 121 mmHg and 127 mmHg and 136 mmHg | PAP(mean) ([1]; time 60): 39.9 mmHg and 39.2 mmHg and 40.8 mmHg | BP % changes vs. prevalues ([1]; time 60): 99.9% and 100.1% and 100.7% | PAP % changes vs. prevalues ([1]; time 60): 99.7% and 99.3% and 99.8% | BP (mean) ([1]; time 70): 124 mmHg and 126 mmHg and 137 mmHg | PAP(mean) ([1]; time 70): 39.1 mmHg and 36.0 mmHg and 37.2 mmHg | BP % changes vs. prevalues ([1]; time 70): 102.4% and 99.3% and 101.4% | PAP % changes vs. prevalues ([1]; time 70): 97.7% and 91.1% and 91.0% | BP (mean) ([1]; time 80): 123 mmHg and 124 mmHg and 135 mmHg | PAP(mean) ([1]; time 80): 39.1 mmHg and 36.1 mmHg and 35.9 mmHg | BP % changes vs. prevalues ([1]; time 80): 101.6% and 97.7% and 100.0% | PAP % changes vs. prevalues ([1]; time 80): 97.7% and 91.3% and 88.0% | BP (mean) ([1]; time 90): 122 mmHg and 125 mmHg and 134 mmHg | PAP(mean) ([1]; time 90): 37.9 mmHg and 35.2 mmHg and 34.5 mmHg | BP % changes vs. prevalues ([1]; time 90): 100.7% and 98.5% and 99.2% | PAP % changes vs. prevalues ([1]; time 90): 94.7% and 89.1% and 84.5% | BP (mean) ([1]; time 100): 122 mmHg and 124 mmHg and 132 mmHg | PAP(mean) ([1]; time 100): 36.8 mmHg and 33.2 mmHg and 32.7 mmHg | BP % changes vs. prevalues ([1]; time 100): 100.7% and 97.7% (2×) | PAP % changes vs. prevalues ([1]; time 100): 91.8% and 84.0% and 80.0% | BP (mean) ([1]; time 110): 122 mmHg and 125 mmHg and 133 mmHg | PAP(mean) ([1]; time 110): 35.5 mmHg and 31.9 mmHg and 31.2 mmHg | BP % changes vs. prevalues ([1]; time 110): 100.7% and 98.5% (2×) | PAP % changes vs. prevalues ([1]; time 110): 88.8% and 80.9% and 76.3% | BP (mean) ([1]; time 120): 121 mmHg and 125 mmHg and 132 mmHg | PAP(mean) ([1]; time 120): 34.8 mmHg and 30.2 mmHg and 29.8 mmHg | BP % changes vs. prevalues ([1]; time 120): 99.9% and 98.5% and 97.7% | PAP % changes vs. prevalues ([1]; time 120): 87.0% and 76.6% and 73.0% | BP (mean) ([1]; time 130): 120 mmHg and 124 mmHg and 131 mmHg | PAP(mean) ([1]; time 130): 34.2 mmHg and 29.7 mmHg and 29.3 mmHg | BP % changes vs. prevalues ([1]; time 130): 99.1% and 97.7% and 97.0% | PAP % changes vs. prevalues ([1]; time 130): 85.5% and 75.2% and 71.7% | BP (mean) ([1]; time 140): 119 mmHg and 125 mmHg and 131 mmHg | PAP(mean) ([1]; time 140): 34.3 mmHg and 29.3 mmHg and 28.6 mmHg | BP % changes vs. prevalues ([1]; time 140): 98.3% and 98.5% and 97.0% | PAP % changes vs. prevalues ([1]; time 140): 85.6% and 74.3% and 70.0% | BP (mean) ([1]; time 150): 117 mmHg and 124 mmHg and 130 mmHg | PAP(mean) ([1]; time 150): 33.7 mmHg and 28.4 mmHg | BP % changes vs. prevalues ([1]; time 150): 96.6% and 97.7% and 96.3% | PAP % changes vs. prevalues ([1]; time 150): 84.1% and 71.9% and 69.4% | BP (mean) ([1]; time 160): 117 mmHg | BP % changes vs. prevalues ([1]; time 160): 96.6% and 95.3% and 96.3% | PAP % changes vs. prevalues ([1]; time 160): 84.1% and 70.4% and 68.1% | BP % changes vs. prevalues ([1]; time 170): 95.8% and 94.5% and 95.5% | PAP % changes vs. prevalues ([1]; time 170): 83.8% and 69.8% and 68.5% | BP % changes vs. prevalues ([1]; time 180): 94.1% and 92.2% and 97.7% | PAP % changes vs. prevalues ([1]; time 180): 83.8% and 68.7% and 68.9% | BP % changes vs. prevalues ([1]; time 190): 92.5% and 91.4% and 98.5% | PAP % changes vs. prevalues ([1]; time 190): 83.9% and 67.7% and 69.3% | BP % changes vs. prevalues ([1]; time 200): 90.0% and 90.6% and 97.0% | PAP % changes vs. prevalues ([1]; time 200): 83.7% and 67.9% and 68.5% | BP % changes vs. prevalues ([1]; time 210): 90.8% | PAP % changes vs. prevalues ([1]; time 210): 83.4% and 66.5% and 67.7% | BP (mean) ([1]; time −10): 116 mmHg and 126 mmHg and 139 mmHg | PAP(mean) ([1]; time −10): 37.9 mmHg and 37.8 mmHg and 39.4 mmHg | persistence of measurable plasma concentration after first inhalation [4]: 48 h

O=C(O)c1ccc(CCN(CCc2ccccc2OCc2ccc(-c3ccc(C(F)(F)F)cc3)cc2Cl)[C@H]2CCCc3nc(C(=O)O)ccc32)cc1 [example 4, (5S)-{[2-(4-Carboxyphenyl)ethyl][2-(2-{[3-chloro-4′-(trifluoromethyl)biphenyl-4-yl]methoxy}phenyl)-ethyl]amino}-5,6,7,8-tetrahydroquinoline-2-carboxylic acid]
stability of the form under micronization ([3]; listed as monohydrate I): stable under micronization conditions
